Among the data in patent US20240409585A1, “MACROCYCLIC IMMUNOMODULATORS” (priority 2021, published 2024) are IC50 values, retold here.

The structures appear in SMILES notation. Bridge positions count the residues as written; N and C are the ends. Square brackets hold non-standard residues; d marks the D form. Peptide text beside a SMILES is read from it. * marks the point of attachment. ξ: configuration not given here. Phe(4-COOH) = N[C@@H](Cc1ccc(C(=O)O)cc1)C(=O)O; Bip = N[C@@H](Cc1ccc(-c2ccccc2)cc1)C(=O)O; pY = N[C@@H](Cc1ccc(OP(=O)(O)O)cc1)C(=O)O; Phe(3-Me) = Cc1cccc(C[C@H](N)C(=O)O)c1; Val(3-OH) = CC(C)(O)[C@H](N)C(=O)O; 4Pal = N[C@@H](Cc1ccncc1)C(=O)O; Cha = N[C@@H](CC1CCCCC1)C(=O)O; Cit = NC(=O)NCCC[C@H](N)C(=O)O; Ile(3ξ) = CCC(C)[C@H](N)C(=O)O; Thr(3ξ) = CC(O)[C@H](N)C(=O)O; Pip = O=C(O)[C@@H]1CCCCN1; Carboxymethyl = O=C(O)C*; NMeA = CN[C@@H](C)C(=O)O; Orn = NCCC[C@H](N)C(=O)O; Dab = NCC[C@H](N)C(=O)O; Dap = NC[C@H](N)C(=O)O; Propargyl = C#CC*

T1 sequence (Q15116 25-288): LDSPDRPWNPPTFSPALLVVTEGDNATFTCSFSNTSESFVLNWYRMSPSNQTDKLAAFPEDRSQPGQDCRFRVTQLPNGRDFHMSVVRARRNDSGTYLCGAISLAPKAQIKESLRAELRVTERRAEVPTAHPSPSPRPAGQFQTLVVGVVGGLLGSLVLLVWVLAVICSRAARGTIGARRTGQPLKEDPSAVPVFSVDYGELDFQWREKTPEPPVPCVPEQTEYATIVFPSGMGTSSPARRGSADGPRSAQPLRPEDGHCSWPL

One assay has as its target T1, PE-labeled human PD-L1-Ig binding to Jurkat cell line over-expressing human PD-1 (Jurkat-PD-1) (Homo sapiens, UniProt Q15116).
T1 construct: expressed in transfected cells; host or cells: Jurkat
The experiment in a line: Jurkat-PD-1 Cell Binding High-Content Screening Assay (CBA): Method 1. Conditions: Jurkat HPDL1 PD1 IC50 (uM) (Method 1), Jurkat-hPD-1 cells, PE-labeled PD-L1-Ig 20 nM final.
Regarding `CC(C)C[C@@H]1NC(=O)[C@H](Cc2c[nH]c3ccccc23)NC(=O)[C@H](CC(=O)O)NC(=O)[C@H](Cc2ccc(OP(=O)(O)O)cc2)NC(=O)[C@H](Cc2ccccc2)NC(=O)CSC[C@@H](C(=O)N[C@@H](C)C(N)=O)NC(=O)[C@H](CO)NC(=O)[C@H](C(C)C)NC(=O)[C@H](CC(C)C)NC(=O)[C@H](CC(N)=O)NC(=O)[C@@H](C)NC(=O)[C@H](C)N(C)C(=O)[C@H](C(C)C)NC(=O)[C@H](Cc2ccc(-c3ccccc3)cc2)NC1=O` [Compound 1756] ({CH2CO}-F[pY]DWL[Bip]V[NMeA][dA]NLVSCA-NH2; thioether N-14), the IC50 was 0.03 µM.

The assay is the same for the next values; noted with them: Jurkat-hPD-1 cells, PE-labeled PD-L1-Ig 20 nM final; read-out: Jurkat HPDL1 PD1 IC50 (uM) (Method 1).
In the case of `Cc1cccc(C[C@@H]2NC(=O)[C@H](CC(=O)O)NC(=O)[C@H](Cc3ccc(OCC(=O)O)cc3)NC(=O)[C@H](CN)NC(=O)CSC[C@@H](C(=O)N[C@@H](C)C(N)=O)NC(=O)[C@H]([C@@H](C)O)NC(=O)[C@H](C(C)C)NC(=O)[C@H](CC(C)C)NC(=O)[C@H](CCN)NC(=O)[C@@H](CC(C)C)NC(=O)[C@H](C)N(C)C(=O)[C@H](CCCNC(=N)N)NC(=O)[C@H](Cc3ccc(-c4ccccc4)cc3)NC(=O)[C@H](C(C)C)NC2=O)c1` [Compound 1456] ({CH2CO}-[Dap]Y(Carboxymethyl)D[Phe(3-Me)]V[Bip]R[NMeA][dL][Dab]LVTCA-NH2; thioether N-14), the IC50 turned out to be 0.04 µM. Turning to `CC(C)C[C@H]1NC(=O)[C@@H]2CCCCN2C(=O)[C@H](Cc2c[nH]cn2)NC(=O)[C@H](Cc2ccc(-c3ccccc3)cc2)NC(=O)[C@H](C(C)C)NC(=O)[C@H](Cc2c[nH]c3ccccc23)NC(=O)[C@H](CC(=O)O)NC(=O)[C@H](Cc2ccc(C(=O)O)cc2)NC(=O)[C@H](Cc2ccncc2)NC(=O)CSC[C@@H](C(=O)N[C@H](C)C(N)=O)NC(=O)[C@H](CO)NC(=O)[C@H](C(C)C)NC(=O)[C@H](CC2CCCCC2)NC(=O)[C@H](CCN)NC1=O` [Compound 2125] ({CH2CO}-[4Pal][Phe(4-COOH)]DWV[Bip]H[Pip][dL][Dab][Cha]VSC[dA]-NH2; thioether N-14), the IC50 is 0.04 µM. On to `CC(C)C[C@@H]1NC(=O)[C@H](CCN)NC(=O)[C@@H](CC(C)C)NC(=O)[C@H](C)N(C)C(=O)[C@H](CCCNC(N)=O)NC(=O)[C@H](Cc2ccc(-c3ccccc3)cc2)NC(=O)[C@H](C(C)C)NC(=O)[C@H](Cc2c[nH]c3ccccc23)NC(=O)[C@H](CC(=O)O)NC(=O)[C@H](Cc2ccc(O)cc2)NC(=O)[C@H](Cc2ccccc2)NC(=O)CSC[C@@H](C(=O)N[C@@H](C)C(N)=O)NC(=O)[C@H](C(C)O)NC(=O)[C@H](C(C)C)NC1=O` (stereo partly drawn) [Compound 2033] ({CH2CO}-FYDWV[Bip][Cit][NMeA][dL][Dab]LV[Thr(3ξ)]CA-NH2; thioether N-14), for which the IC50 stood at 0.03 µM. On the same count and under the same terms, in the case of `C#CCOc1ccc(C[C@@H]2NC(=O)[C@H](CC(N)=O)NC(=O)CSC[C@@H](C(=O)N[C@@H](C)C(N)=O)NC(=O)[C@H]([C@@H](C)O)NC(=O)[C@H](C(C)C)NC(=O)[C@H](CC(C)C)NC(=O)[C@H](CCN)NC(=O)[C@@H](CC(C)C)NC(=O)[C@H](C)N(C)C(=O)[C@H](CCCNC(=N)N)NC(=O)[C@H](Cc3ccc(-c4ccccc4)cc3)NC(=O)[C@H](C(C)C)NC(=O)[C@H](Cc3c[nH]c4ccccc34)NC(=O)[C@H](CC(=O)O)NC2=O)cc1` [Compound 1208] ({CH2CO}-NY(Propargyl)DWV[Bip]R[NMeA][dL][Dab]LVTCA-NH2; thioether N-14) it was 0.14 µM.

As for `CCC(C)[C@@H]1NC(=O)[C@H](Cc2ccc(-c3ccccc3)cc2)NC(=O)[C@H](C(C)C)NC(=O)[C@H](Cc2c[nH]c3ccccc23)NC(=O)[C@H](CC(=O)O)NC(=O)[C@H](Cc2ccc(O)cc2)NC(=O)[C@H](CC(N)=O)NC(=O)CSC[C@@H](C(=O)N[C@@H](C)C(N)=O)NC(=O)[C@H](C(C)O)NC(=O)[C@H](C(C)C)NC(=O)[C@H](CC2CCCCC2)NC(=O)[C@H](CCN)NC(=O)[C@@H](CC(C)C)NC(=O)[C@H](C)N(C)C1=O` (stereo partly drawn) [Compound 2061] ({CH2CO}-NYDWV[Bip][Ile(3ξ)][NMeA][dL][Dab][Cha]V[Thr(3ξ)]CA-NH2; thioether N-14), the IC50 stood at 0.01 µM. Same read-out and setting: in the case of `CC(C)C[C@@H]1NC(=O)[C@H](CCCN)NC(=O)[C@@H](CC(C)C)NC(=O)[C@H](C)N(C)C(=O)[C@H](CCCNC(N)=O)NC(=O)[C@H](Cc2ccc(-c3ccccc3)cc2)NC(=O)[C@H](C(C)C)NC(=O)[C@H](Cc2c[nH]c3ccccc23)NC(=O)[C@H](CC(=O)O)NC(=O)[C@H](Cc2ccc(O)cc2)NC(=O)[C@H](CC(N)=O)NC(=O)CSC[C@@H](C(=O)NCC(N)=O)NC(=O)[C@H]([C@@H](C)O)NC(=O)[C@H](C(C)C)NC1=O` [Compound 1235] ({CH2CO}-NYDWV[Bip][Cit][NMeA][dL][Orn]LVTCG-NH2; thioether N-14) it was 0.06 µM; in that of `Cc1cccc(C[C@@H]2NC(=O)[C@H](CC(=O)O)NC(=O)[C@H](Cc3ccc(OCC(=O)O)cc3)NC(=O)[C@H](Cc3ccncc3)NC(=O)CSC[C@@H](C(=O)N[C@@H](CCN)C(N)=O)NC(=O)[C@H](CO)NC(=O)[C@H](C(C)(C)O)NC(=O)[C@H](CC3CCCCC3)NC(=O)[C@H](CCN)NC(=O)[C@@H](CC(C)C)NC(=O)[C@H](C)N(C)C(=O)[C@H](CCCNC(N)=O)NC(=O)[C@H](Cc3ccc(-c4ccccc4)cc3)NC(=O)[C@H](Cc3ccc(OCC(=O)O)cc3)NC2=O)c1` [Compound 2201] ({CH2CO}-[4Pal]Y(Carboxymethyl)D[Phe(3-Me)]Y(Carboxymethyl)[Bip][Cit][NMeA][dL][Dab][Cha][Val(3-OH)]SC[Dab]-NH2; thioether N-14), 0.01 µM; in that of `CC(C)C[C@@H]1NC(=O)[C@H](Cc2c[nH]c3ccccc23)NC(=O)[C@H](CC(=O)O)NC(=O)[C@H](Cc2ccc(O)cc2)NC(=O)[C@H](Cc2ccccc2)NC(=O)CSC[C@@H](C(=O)N[C@@H](C)C(N)=O)NC(=O)[C@H](CO)NC(=O)[C@H](C(C)C)NC(=O)[C@H](CC(C)C)NC(=O)[C@H](CCC(=O)O)NC(=O)[C@@H](C)NC(=O)[C@H](C)N(C)C(=O)[C@H](C(C)C)NC(=O)[C@H](Cc2ccc(-c3ccccc3)cc2)NC1=O` [Compound 1749] ({CH2CO}-FYDWL[Bip]V[NMeA][dA]ELVSCA-NH2; thioether N-14), 0.02 µM. With `CC(C)C[C@@H]1NC(=O)[C@H](CCCNC(=N)N)NC(=O)[C@@H](CC(C)C)NC(=O)[C@H](C)N(C)C(=O)[C@H](CCC(=O)O)NC(=O)[C@H](Cc2ccc(-c3ccccc3)cc2)NC(=O)[C@H](C(C)C)NC(=O)[C@H](Cc2c[nH]c3ccccc23)NC(=O)[C@H](CC(=O)O)NC(=O)[C@H](Cc2ccc(O)cc2)NC(=O)[C@H](CC(N)=O)NC(=O)CSC[C@@H](C(=O)N[C@@H](C)C(N)=O)NC(=O)[C@H]([C@@H](C)O)NC(=O)[C@H](C(C)C)NC1=O` [Compound 1254] ({CH2CO}-NYDWV[Bip]E[NMeA][dL]RLVTCA-NH2; thioether N-14), the IC50 worked out at 0.03 µM.

On to `CCC(C)[C@@H]1NC(=O)[C@H](Cc2ccc(-c3ccccc3)cc2)NC(=O)[C@H](C(C)C)NC(=O)[C@H](Cc2c[nH]c3ccccc23)NC(=O)[C@H](CC(=O)O)NC(=O)[C@H](Cc2ccc(OCC(=O)O)cc2)NC(=O)[C@H](C(C)O)NC(=O)CSC[C@@H](C(=O)N[C@@H](CCCN)C(N)=O)NC(=O)[C@H](C(C)O)NC(=O)[C@H](C(C)C)NC(=O)[C@H](CC2CCCCC2)NC(=O)[C@H](CCN)NC(=O)[C@@H](CC(C)C)NC(=O)[C@H](C)N(C)C1=O` (stereo partly drawn) [Compound 2153] ({CH2CO}-[Thr(3ξ)]Y(Carboxymethyl)DWV[Bip][Ile(3ξ)][NMeA][dL][Dab][Cha]V[Thr(3ξ)]C[Orn]-NH2; thioether N-14), for which the IC50 was found to be 0.02 µM.
